Test results published in US10407430B2, “Janus kinase 1 selective inhibitor and pharmaceutical use thereof” (YANG JI CHEMICAL CO., LTD., priority 2015, dated 2019).

What was measured:
Assay type in all cases: biochemical
Human JAK1 = target: T1, Human JAK1 (Homo sapiens, UniProt P23458); assay: In-vitro kinase inhibition test, JAK1; settings: for inhibition at 1 µM: compound at 1 uM, read-out: JAK1 kinase-phosphorylation inhibitory level (% inhibition); for JAK1/JAK2: ratio of % inhibition of JAK1 to JAK2 at 1 uM
T1 construct: purchased Millipore, Germany

Human JAK2 = target: T2, Human JAK2 (Homo sapiens, UniProt O60674); assay: In-vitro kinase inhibition test, JAK2; settings: compound at 1 uM; read-out: JAK2 kinase-phosphorylation inhibitory level (% inhibition)
T2 construct: purchased Millipore, Germany
Description: (§1) Human-derived JAK1, JAK2, JAK3 and TYK2 (Millipore, Germany) were used as kinases. Each kinase was diluted with an appropriate buffer as described below, and then mixed with reaction reagents.
(§2) 3-morpholinopropane-1-sulfonic acid (MOPS) and EDTA were dissolved in deionized water at a concentration of 20 mM and 1 mM, respectively, and then 100 μL of β-mercaptoethanol, 10 μL of Brij-35™, 5 mL of glycerol, and 100 mg of bovine serum albumin (BSA), each per 100 mL of the solution, were added to the solution, thereby preparing a dilution buffer for JAK2, JAK3, and TYK2.
(§3) Each compound was dissolved in a 100%-DMSO solution at a concentration of about 50 μM. This prepared solution was reacted with reaction reagents in each well of a 96-well plate until a final concentration of the compound reached 1 μM. A detailed experimental method for each kinase is as follows.
(§4) After reaction for about 40 minutes at room temperature, the reaction was stopped by adding 5 uL of a 3% (v/v) phosphoric acid solution.
(§5) The inhibitory levels (% inhibition) represent a percentage of reduction in phosphorylation activity in each test group with respect to the phosphorylation activity of a corresponding kinase in a negative control group lacking any of the compounds synthesized in the examples. % inhibition=[(Scintillation value of Test compound non-treatment group−Scintillation value of Test compound treatment group)/(Scintillation value of Test compound non-treatment group)]×100

Human JAK3 = target: T3, Human JAK3 (Homo sapiens, UniProt P52333); assay: In-vitro kinase inhibition test, JAK3; settings: compound at 1 uM; read-out: JAK3 kinase-phosphorylation inhibitory level (% inhibition)
T3 construct: purchased Millipore, Germany
T3 sequence (P52333 1-1124): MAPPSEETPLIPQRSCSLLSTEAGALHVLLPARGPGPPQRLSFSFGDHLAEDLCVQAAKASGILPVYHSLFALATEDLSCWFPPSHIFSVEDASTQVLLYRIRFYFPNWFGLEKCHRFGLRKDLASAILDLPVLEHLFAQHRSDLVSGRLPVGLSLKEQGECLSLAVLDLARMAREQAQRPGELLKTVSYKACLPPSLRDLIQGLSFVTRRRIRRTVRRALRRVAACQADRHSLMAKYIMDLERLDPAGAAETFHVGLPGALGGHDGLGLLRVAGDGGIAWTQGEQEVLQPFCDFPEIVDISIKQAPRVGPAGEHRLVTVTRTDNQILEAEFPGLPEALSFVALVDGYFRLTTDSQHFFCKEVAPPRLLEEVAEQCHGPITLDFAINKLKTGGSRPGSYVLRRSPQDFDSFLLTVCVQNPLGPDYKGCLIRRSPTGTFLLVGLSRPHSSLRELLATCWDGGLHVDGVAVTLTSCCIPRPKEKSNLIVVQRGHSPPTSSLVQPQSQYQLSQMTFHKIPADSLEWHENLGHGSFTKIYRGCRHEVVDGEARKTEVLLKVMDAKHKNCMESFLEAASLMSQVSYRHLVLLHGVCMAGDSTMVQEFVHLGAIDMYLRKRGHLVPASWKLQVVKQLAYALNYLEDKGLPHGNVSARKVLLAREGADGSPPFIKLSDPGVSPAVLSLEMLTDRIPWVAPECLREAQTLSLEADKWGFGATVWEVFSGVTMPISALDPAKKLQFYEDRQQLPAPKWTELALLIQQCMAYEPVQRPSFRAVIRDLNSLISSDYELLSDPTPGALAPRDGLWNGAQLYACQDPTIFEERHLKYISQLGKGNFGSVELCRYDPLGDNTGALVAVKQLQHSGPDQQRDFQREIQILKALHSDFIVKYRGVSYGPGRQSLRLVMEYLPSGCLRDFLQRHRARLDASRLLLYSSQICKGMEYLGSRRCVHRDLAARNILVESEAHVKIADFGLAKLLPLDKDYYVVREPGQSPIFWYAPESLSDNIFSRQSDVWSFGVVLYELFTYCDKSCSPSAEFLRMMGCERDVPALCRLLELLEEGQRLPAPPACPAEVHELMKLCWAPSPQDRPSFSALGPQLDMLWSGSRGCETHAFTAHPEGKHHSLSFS

Human TYK2 = target: T4, Human TYK2 (Homo sapiens, UniProt P29597); assay: In-vitro kinase inhibition test, TYK2; settings: compound at 1 uM; read-out: TYK2 kinase-phosphorylation inhibitory level (% inhibition)
T4 construct: purchased Millipore, Germany
T4 sequence (P29597 whole entry): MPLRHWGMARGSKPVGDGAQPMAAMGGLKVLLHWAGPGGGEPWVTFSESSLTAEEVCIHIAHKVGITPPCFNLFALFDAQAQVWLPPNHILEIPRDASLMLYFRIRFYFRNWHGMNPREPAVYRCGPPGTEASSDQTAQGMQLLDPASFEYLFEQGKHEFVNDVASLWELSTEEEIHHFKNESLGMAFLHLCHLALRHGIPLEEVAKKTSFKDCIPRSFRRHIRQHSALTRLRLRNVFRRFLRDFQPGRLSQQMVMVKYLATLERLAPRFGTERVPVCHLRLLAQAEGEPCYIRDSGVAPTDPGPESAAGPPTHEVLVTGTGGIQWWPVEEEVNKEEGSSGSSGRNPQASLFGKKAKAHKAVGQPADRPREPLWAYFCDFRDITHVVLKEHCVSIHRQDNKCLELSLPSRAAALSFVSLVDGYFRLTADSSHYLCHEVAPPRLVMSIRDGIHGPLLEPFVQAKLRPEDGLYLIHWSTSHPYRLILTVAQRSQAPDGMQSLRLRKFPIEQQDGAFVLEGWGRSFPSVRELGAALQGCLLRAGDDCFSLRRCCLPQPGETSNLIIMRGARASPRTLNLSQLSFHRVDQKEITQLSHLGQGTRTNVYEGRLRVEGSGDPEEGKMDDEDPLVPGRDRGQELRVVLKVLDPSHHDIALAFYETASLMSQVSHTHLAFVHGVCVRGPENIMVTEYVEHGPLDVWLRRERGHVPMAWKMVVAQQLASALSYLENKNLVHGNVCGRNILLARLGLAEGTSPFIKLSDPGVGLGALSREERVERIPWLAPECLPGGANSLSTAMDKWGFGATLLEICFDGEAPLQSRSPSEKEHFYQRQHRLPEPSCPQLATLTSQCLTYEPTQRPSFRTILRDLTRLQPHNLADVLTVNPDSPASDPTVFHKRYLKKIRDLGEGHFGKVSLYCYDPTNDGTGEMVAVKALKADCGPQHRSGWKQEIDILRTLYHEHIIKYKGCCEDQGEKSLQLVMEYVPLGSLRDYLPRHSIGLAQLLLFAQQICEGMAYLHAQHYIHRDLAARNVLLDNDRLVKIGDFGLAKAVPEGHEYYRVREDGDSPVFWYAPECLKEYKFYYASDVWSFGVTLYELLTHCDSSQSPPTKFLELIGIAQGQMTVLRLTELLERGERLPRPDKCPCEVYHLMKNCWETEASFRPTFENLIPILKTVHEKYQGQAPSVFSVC
Description: as §1, §2, §3, §4, §5

T1 sequence (P23458 whole entry): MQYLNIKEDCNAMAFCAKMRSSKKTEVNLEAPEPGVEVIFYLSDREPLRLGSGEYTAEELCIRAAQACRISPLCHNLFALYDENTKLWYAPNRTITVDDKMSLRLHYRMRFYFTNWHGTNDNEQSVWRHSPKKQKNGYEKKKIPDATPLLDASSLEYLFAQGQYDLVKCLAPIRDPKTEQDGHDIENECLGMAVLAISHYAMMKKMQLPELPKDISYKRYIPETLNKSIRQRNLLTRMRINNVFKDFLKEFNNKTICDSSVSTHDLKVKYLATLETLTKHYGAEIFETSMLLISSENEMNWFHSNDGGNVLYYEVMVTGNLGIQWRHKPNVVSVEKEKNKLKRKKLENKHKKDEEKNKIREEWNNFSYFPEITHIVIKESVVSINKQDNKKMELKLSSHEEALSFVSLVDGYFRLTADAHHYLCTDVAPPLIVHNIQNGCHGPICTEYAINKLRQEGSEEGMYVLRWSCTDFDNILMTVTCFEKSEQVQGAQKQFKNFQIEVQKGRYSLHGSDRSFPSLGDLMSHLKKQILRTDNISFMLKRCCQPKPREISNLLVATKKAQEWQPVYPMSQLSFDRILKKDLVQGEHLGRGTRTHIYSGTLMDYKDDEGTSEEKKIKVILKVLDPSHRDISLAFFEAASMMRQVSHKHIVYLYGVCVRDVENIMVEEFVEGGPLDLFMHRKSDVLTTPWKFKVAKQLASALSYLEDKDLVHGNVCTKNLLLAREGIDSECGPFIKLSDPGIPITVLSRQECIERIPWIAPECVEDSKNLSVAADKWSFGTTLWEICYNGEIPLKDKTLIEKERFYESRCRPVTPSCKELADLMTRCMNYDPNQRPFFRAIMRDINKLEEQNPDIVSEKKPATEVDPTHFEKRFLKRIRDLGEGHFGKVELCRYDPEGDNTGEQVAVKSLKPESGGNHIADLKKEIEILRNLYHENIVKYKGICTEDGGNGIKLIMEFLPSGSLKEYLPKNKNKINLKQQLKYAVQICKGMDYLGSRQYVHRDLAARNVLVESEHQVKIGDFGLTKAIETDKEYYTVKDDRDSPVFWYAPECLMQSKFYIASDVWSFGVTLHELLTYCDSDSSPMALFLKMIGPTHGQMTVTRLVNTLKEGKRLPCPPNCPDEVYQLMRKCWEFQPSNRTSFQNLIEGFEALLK
T2 sequence (O60674 whole entry): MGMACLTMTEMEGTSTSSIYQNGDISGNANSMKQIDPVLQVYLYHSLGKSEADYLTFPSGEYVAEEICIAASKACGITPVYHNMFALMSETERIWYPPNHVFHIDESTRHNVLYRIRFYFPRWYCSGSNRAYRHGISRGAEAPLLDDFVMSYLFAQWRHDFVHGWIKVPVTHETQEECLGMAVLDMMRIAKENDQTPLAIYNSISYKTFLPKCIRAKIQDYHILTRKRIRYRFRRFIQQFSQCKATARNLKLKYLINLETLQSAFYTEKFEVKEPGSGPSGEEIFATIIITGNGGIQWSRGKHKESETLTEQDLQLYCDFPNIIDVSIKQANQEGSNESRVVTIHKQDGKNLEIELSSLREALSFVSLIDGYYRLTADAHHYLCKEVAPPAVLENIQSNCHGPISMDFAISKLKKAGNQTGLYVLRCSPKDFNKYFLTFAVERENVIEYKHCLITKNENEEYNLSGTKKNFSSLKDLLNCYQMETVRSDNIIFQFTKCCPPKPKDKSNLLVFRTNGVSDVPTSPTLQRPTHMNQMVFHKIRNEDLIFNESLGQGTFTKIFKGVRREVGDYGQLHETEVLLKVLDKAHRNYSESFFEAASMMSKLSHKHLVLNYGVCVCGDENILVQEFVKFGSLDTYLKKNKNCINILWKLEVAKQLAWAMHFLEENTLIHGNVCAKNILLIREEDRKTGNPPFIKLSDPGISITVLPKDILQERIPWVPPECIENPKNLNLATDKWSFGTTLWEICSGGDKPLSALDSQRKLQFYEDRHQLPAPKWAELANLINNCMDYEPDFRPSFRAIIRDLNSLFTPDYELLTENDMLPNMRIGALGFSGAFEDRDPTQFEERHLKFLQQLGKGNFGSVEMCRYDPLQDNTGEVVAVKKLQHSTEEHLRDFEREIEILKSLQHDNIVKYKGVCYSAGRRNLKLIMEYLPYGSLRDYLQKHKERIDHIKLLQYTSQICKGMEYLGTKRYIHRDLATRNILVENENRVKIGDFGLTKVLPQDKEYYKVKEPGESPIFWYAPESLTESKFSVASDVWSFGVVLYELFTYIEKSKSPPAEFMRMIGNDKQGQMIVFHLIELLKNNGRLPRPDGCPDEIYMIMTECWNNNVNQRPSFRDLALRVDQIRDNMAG

Row | Compound | inhibition at 1 µM (Human JAK1) [%] | inhibition at 1 µM (Human JAK2) [%] | inhibition at 1 µM (Human JAK3) [%] | JAK1/JAK2 (Human JAK1) | inhibition at 1 µM (Human TYK2) [%]
1 | CN(c1ncnc2[nH]ccc12)[C@@H]1CCN(C(=O)CC#N)C1 [Example 1, (R)-3-(3-(methyl(7H-pyrrolo[2,3-d]pyrimidine-4-yl)amino)pyrrolidine-1-yl)-3-oxopropanenitrile] | 97 | 70 | 20 | – | –
2 | CN(c1ncnc2[nH]ccc12)[C@@H]1CCN(CCC#N)C1 [Example 2, (R)-3-(3-(methyl(7H-pyrrolo[2,3-d]pyrimidine-4-yl)amino)pyrrolidine-1-yl)propanenitrile] | 91 | 42 | 39 | 2.17 | 58
3 | CCCCN1CC[C@@H](N(C)c2ncnc3[nH]ccc23)C1 [Example 3, (R)—N-(1-butylpyrrolidine-3-yl)-N-methyl-7H-pyrrolo[2,3-d]pyrimidine-4-amine] | 52 | 6 | 4 | ∞ | 8
4 | CN(c1ncnc2[nH]ccc12)[C@@H]1CCN(C(=O)CN=[N+]=[N-])C1 [Example 4, (R)-2-azido-1-(3-(methyl(7H-pyrrolo[2,3-d]pyrimidine-4-yl)amino)pyrrolidine-1-yl)ethane-1-one] | 98 | 79 | 33 | 1.24 | 86
5 | CC(C)CC(=O)N1CC[C@@H](N(C)c2ncnc3[nH]ccc23)C1 [Example 5, (R)-3-methyl-1-(3-(methyl(7H-pyrrolo[2,3-d]pyrimidine-4-yl)amino)pyrrolidine-1-yl)butane-1-one] | 93 | 13 | 10 | 7.15 | 63
6 | CC(C)COC(=O)N1CC[C@@H](N(C)c2ncnc3[nH]ccc23)C1 [Example 6, Isobutyl (R)-3-(methyl(7H-pyrrolo[2,3-d]pyrimidine-4-yl)amino)pyrrolidine-1-carboxylate] | 93 | 9 | 9 | 10.33 | 34
7 | CN(c1ncnc2[nH]ccc12)[C@@H]1CCN(C(=O)Nc2ccccc2)C1 [Example 7, (R)-3-(methyl(7H-pyrrolo[2,3-d]pyrimidine-4-yl)amino)-N-phenylpyrrolidine-1-carboxamide] | 97 | 68 | 42 | 1.43 | 72
8 | CN(c1ncnc2[nH]ccc12)[C@@H]1CCN(S(C)(=O)=O)C1 [Example 8, (R)—N-methyl-N-(1-(methylsulfonyl)pyrrolidine-3-yl)-7H-pyrrolo[2,3-d]pyrimidine-4-amine] | 91 | 7 | 21 | 13.00 | 59
9 | CN(c1ncnc2[nH]ccc12)[C@@H]1CCN(S(=O)(=O)C(F)(F)F)C1 [Example 9, (R)—N-methyl-N-(1-((trifluoromethyl)sulfonyl)pyrrolidine-3-yl)-7H-pyrrolo[2,3-d]pyrimidine-4-amine] | 90 | 9 | 11 | 10.00 | 59
10 | CCS(=O)(=O)N1CC[C@@H](N(C)c2ncnc3[nH]ccc23)C1 [Example 10, (R)—N-(1-(ethylsulfonyl)pyrrolidine-3-yl)-N-methyl-7H-pyrrolo[2,3-d]pyrimidine-4-amine] | 94 | 27 | 22 | 3.48 | 74
11 | CCCS(=O)(=O)N1CC[C@@H](N(C)c2ncnc3[nH]ccc23)C1 [Example 11, (R)—N-methyl-N-(1-(propylsulfonyl)pyrrolidine-3-yl)-7H-pyrrolo[2,3-d]pyrimidine-4-amine] | 95 | 62 | 20 | 1.55 | 78
12 | CC(C)S(=O)(=O)N1CC[C@@H](N(C)c2ncnc3[nH]ccc23)C1 [Example 12, (R)—N-(1-(isopropylsulfonyl)pyrrolidine-3-yl)-N-methyl-7H-pyrrolo[2,3-d]pyrimidine-4-amine] | 86 | 11 | 13 | 7.82 | 47
13 | CN(c1ncnc2[nH]ccc12)[C@@H]1CCN(S(=O)(=O)c2cn(C)cn2)C1 [Example 13, (R)—N-methyl-N-(1-((1-methyl-1H-imidazole-4-yl)sulfonyl)pyrrolidine-3-yl)-7H-pyrrolo[2,3-d]pyrimidine-4-amine] | 52 | 9 | 4 | 5.78 | 17
14 | CN(c1ncnc2[nH]ccc12)[C@@H]1CCN(S(=O)(=O)c2ccccc2)C1 [Example 14, (R)—N-methyl-N-(1-(phenylsulfonyl)pyrrolidine-3-yl)-7H-pyrrolo[2,3-d]pyrimidine-4-amine] | 99 | 69 | 17 | 1.43 | 91
15 | CN(c1ncnc2[nH]ccc12)[C@@H]1CCN(S(=O)(=O)c2ccccc2F)C1 [Example 15, (R)—N-(1-((2-fluorophenyl)sulfonyl)pyrrolidine-3-yl)-N-methyl-7H-pyrrolo[2,3-d]pyrimidine-4-amine] | 98 | 66 | 25 | 1.48 | 92
16 | CN(c1ncnc2[nH]ccc12)[C@@H]1CCN(S(=O)(=O)c2cccc(F)c2)C1 [Example 16, (R)—N-(1-((3-fluorophenyl)sulfonyl)pyrrolidine-3-yl)-N-methyl-7H-pyrrolo[2,3-d]pyrimidine-4-amine] | 98 | 93 | 47 | 1.05 | 98
17 | CN(c1ncnc2[nH]ccc12)[C@@H]1CCN(S(=O)(=O)c2ccc(F)cc2)C1 [Example 17, (R)—N-(1-((4-fluorophenyl)sulfonyl)pyrrolidine-3-yl)-N-methyl-7H-pyrrolo[2,3-d]pyrimidine-4-amine] | 99 | 81 | 29 | 1.22 | 92
18 | CN(c1ncnc2[nH]ccc12)[C@@H]1CCN(S(=O)(=O)c2ccccc2C#N)C1 [Example 18, (R)-2-((3-(methyl(7H-pyrrolo[2,3-d]pyrimidine-4-yl)amino)pyrrolidine-1-yl)sulfonyl)benzonitrile] | 97 | 73 | 22 | 1.33 | 81
19 | CN(c1ncnc2[nH]ccc12)[C@@H]1CCN(S(=O)(=O)c2cccc(C#N)c2)C1 [Example 19, (R)-3-((3-(methyl(7H-pyrrolo[2,3-d]pyrimidine-4-yl)amino)pyrrolidine-1-yl)sulfonyl)benzonitrile] | 99 | 81 | 42 | 1.22 | 95
20 | CN(c1ncnc2[nH]ccc12)[C@@H]1CCN(S(=O)(=O)c2ccc(C#N)cc2)C1 [Example 20, (R)-4-((3-(methyl(7H-pyrrolo[2,3-d]pyrimidine-4-yl)amino)pyrrolidine-1-yl)sulfonyl)benzonitrile] | 97 | 46 | 9 | 2.11 | 84
21 | CN(c1ncnc2[nH]ccc12)[C@H]1CCN(C(=O)CC#N)C1 [Example 31, (S)-3-(3-(methyl(7H-pyrrolo[2,3-d]pyrimidine-4-yl)amino)pyrrolidine-1-yl)-3-oxopropanenitrile] | 23 | -6 | 27 | – | –
